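Tested at 5 concentrations; 48 h exposure; 96-well plates; endpoints linearly interpolated, else capped at highest concentration. GI50 = concentration required for 50% inhibition of growth. TGI marks complete inhibition of growth.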
Legend:
Assay in all cases: NCI anticancer screen, dose series, 48 h
[1] = test system: 786-0 renal
[2] = test system: A498 renal
[3] = test system: A549 NSCLC
[4] = test system: ACHN renal
[5] = test system: DU-145 prostate
[6] = test system: HS 578T breast
[7] = test system: MOLT-4 leukemia
[8] = test system: NCI/ADR-RES ovarian
[9] = test system: SF-295 CNS
[10] = test system: SN12C renal

Structure (SMILES): COc1cc2c(cc1OC)-c1c(c3ccc([N+](=O)[O-])cc3c(=O)n1CCCN=[N+]=[N-])C2=O
- GI50 [1]: 50.4 µM
- TGI [1]: > 100 µM
- GI50 [2]: 40.7 µM
- TGI [2]: > 100 µM
- GI50 [3]: 56.6 µM
- TGI [3]: > 100 µM
- GI50 [4]: 19.4 µM
- TGI [4]: > 100 µM
- GI50 [5]: 86.1 µM
- TGI [5]: > 100 µM
- GI50 [6]: > 100 µM
- TGI [6]: > 100 µM
- GI50 [7]: 23.3 µM
- TGI [7]: > 100 µM
- GI50 [8]: 31.7 µM
- TGI [8]: > 100 µM
- GI50 [9]: 30.1 µM
- TGI [9]: > 100 µM
- GI50 [10]: 46.7 µM
- TGI [10]: > 100 µM

Structure (SMILES): COc1ccccc1-c1ccc2c(N)c(C(=O)c3ccc4c(c3)OCO4)sc2n1
- GI50 [1]: 2.78 µM
- TGI [1]: 11.3 µM
- GI50 [2]: 2.39 µM
- TGI [2]: 13.8 µM
- GI50 [3]: 4.05 µM
- TGI [3]: 16.6 µM
- GI50 [4]: 4.07 µM
- TGI [4]: 13.5 µM
- GI50 [5]: 15 µM
- TGI [5]: 42.6 µM
- GI50 [6]: 7.97 µM
- TGI [6]: 47.1 µM
- GI50 [7]: 4.98 µM
- TGI [7]: > 100 µM
- GI50 [8]: 4.13 µM
- TGI [8]: 16.7 µM
- GI50 [9]: 3.98 µM
- TGI [9]: 18.5 µM
- GI50 [10]: 6.14 µM
- TGI [10]: 24.5 µM

Structure (SMILES): CC[C@H](C)C(=O)O[C@H]1CCC=C2C=C[C@H](C)[C@H](CC[C@@H]3C[C@@H](O)CC(=O)O3)[C@H]21
- GI50 [1]: 8.95 µM
- TGI [1]: > 74.5 µM
- GI50 [2]: 0.183 µM
- TGI [2]: 1.36 µM
- GI50 [3]: 11.7 µM
- TGI [3]: > 100 µM
- GI50 [4]: 1.46 µM
- TGI [4]: 5.18 µM
- GI50 [5]: 51.6 µM
- TGI [5]: > 100 µM
- GI50 [6]: 4.56 µM
- TGI [6]: > 100 µM
- TGI [7]: > 100 µM
- GI50 [8]: 3.34 µM
- TGI [8]: > 100 µM
- GI50 [9]: 1.66 µM
- TGI [9]: 4.32 µM
- GI50 [10]: 3.88 µM
- TGI [10]: > 100 µM

Structure (SMILES): CCCCNP1(NCCCC)=NP(NCCCC)(NCCCC)=NP(NCCCC)(NCCCC)=NP(NCCCC)(NCCCC)=N1
- GI50 [1]: 1.34 µM
- TGI [1]: 5.26 µM
- GI50 [2]: 1.93 µM
- TGI [2]: 8.01 µM
- GI50 [3]: 0.593 µM
- TGI [3]: 4.03 µM
- GI50 [4]: 2.5 µM
- TGI [4]: > 32.9 µM
- GI50 [5]: 0.895 µM
- TGI [5]: 15.2 µM
- GI50 [6]: 1.43 µM
- TGI [6]: 7.71 µM
- GI50 [7]: 0.491 µM
- TGI [7]: 3.99 µM
- GI50 [8]: 73.3 µM
- TGI [8]: > 100 µM
- GI50 [9]: 0.905 µM
- TGI [9]: 5.6 µM
- GI50 [10]: 0.331 µM
- TGI [10]: 12.5 µM

Structure (SMILES): O=C(Nc1cccc(-n2ccc3c(NC(=O)c4ccccc4)nccc32)c1)c1ccc(Cl)c(Cl)c1
- GI50 [1]: 0.242 µM
- TGI [1]: 1.59 µM
- GI50 [2]: 0.13 µM
- TGI [2]: 0.735 µM
- GI50 [3]: 0.136 µM
- TGI [3]: 1.71 µM
- GI50 [4]: 0.177 µM
- TGI [4]: 1.71 µM
- GI50 [5]: 0.22 µM
- TGI [5]: 0.855 µM
- GI50 [6]: 0.0822 µM
- TGI [6]: 1.31 µM
- GI50 [7]: 0.634 µM
- GI50 [8]: 0.0865 µM
- TGI [8]: 0.38 µM
- GI50 [9]: 0.0645 µM
- TGI [9]: 1.31 µM
- GI50 [10]: 0.38 µM
- TGI [10]: 1.78 µM

Structure (SMILES): COC(=O)c1cc2c([nH]c3ccccc32)c(-c2nc3ccccc3cc2CO)n1
- GI50 [1]: 6.2 µM
- TGI [1]: > 100 µM
- GI50 [2]: 30.4 µM
- TGI [2]: > 100 µM
- GI50 [3]: > 100 µM
- TGI [3]: > 100 µM
- GI50 [4]: 30 µM
- TGI [4]: > 100 µM
- GI50 [5]: > 100 µM
- TGI [5]: > 100 µM
- GI50 [6]: > 100 µM
- TGI [6]: > 100 µM
- GI50 [7]: > 100 µM
- TGI [7]: > 100 µM
- GI50 [8]: > 100 µM
- TGI [8]: > 100 µM
- GI50 [9]: > 100 µM
- TGI [9]: > 100 µM
- GI50 [10]: > 100 µM
- TGI [10]: > 100 µM
